# Experimental data taken from BindingDB's records for doi:10.1007/bf00178951 (Sandoz Pharma, 1994).
# Target: G_PROTEIN_RECEP_F1_2 domain-containing protein (Sus scrofa, UniProt I3LCE8)
# Sequence (I3LCE8 whole entry): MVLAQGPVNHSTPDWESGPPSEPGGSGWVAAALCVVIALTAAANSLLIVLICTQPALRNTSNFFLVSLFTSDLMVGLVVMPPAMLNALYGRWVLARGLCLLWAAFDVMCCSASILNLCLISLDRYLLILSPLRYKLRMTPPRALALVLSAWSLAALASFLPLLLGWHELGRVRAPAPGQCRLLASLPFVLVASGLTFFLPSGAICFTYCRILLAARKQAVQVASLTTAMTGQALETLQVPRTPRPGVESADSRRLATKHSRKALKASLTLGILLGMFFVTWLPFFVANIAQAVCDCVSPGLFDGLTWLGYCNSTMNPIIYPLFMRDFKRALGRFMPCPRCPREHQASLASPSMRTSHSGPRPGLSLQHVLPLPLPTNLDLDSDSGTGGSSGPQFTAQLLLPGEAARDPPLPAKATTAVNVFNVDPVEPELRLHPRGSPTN
compound,measurement,value
"O=C(c1ccc(F)cc1)C1CCN(CCn2c(=O)[nH]c3ccccc3c2=O)CC1 [3-(2-{4-[(4-fluorophenyl)carbonyl]piperidin-1-yl}ethyl)-1,2,3,4-tetrahydroquinazoline-2,4-dione]",Ki,> 10 µM
